Data set [1] relates to A. fumigatus. The experiment in a line: Survival of immunosuppressed IPA mice monitored for 15 days. It counts as in vivo, BALB/c mice. The note with it: for survival / survival rate: IPA mice. The procedure: For preparation of animal models of invasive pulmonary aspergillosis, BALB/c mice were divided into various experimental and control groups and subgroups as shown in Table I.
The BALB/c mice were immunosuppressed by three intradermal injections of 2.5 mg of hydrocortisone acetate (Wycort) per 20 g mouse per day 1 day before, the day of, and the day after spore challenge.
On the day of spore challenge (day 0), mice were lightly anesthesized with ether and 10^8 spores of A. fumigatus in 50 μl of sterile saline were administered intranasally in the groups of IPA mice, while 50 μl of saline alone was administered to the untreated control mice. The MBL-treated control and IPA mice received 1 μg of MBL in 50 μl of saline per mouse on day 1, and the groups of untreated control and untreated IPA mice received 50 μl of saline alone intranasally on day 1.
(§1) The survival rates of the MBL treated and untreated mice were monitored for 15 days (FIG. 1). Among the rest of the mice left in each group, two mice were sacrificed each on 4th and 7th day after fungal exposure and lung tissues were collected for histopathology and counting the colony forming units of the fungus (CFUs). For estimating the pulmonary fungal load and hyphae density of the mice, lungs were aseptically removed from each group of mice sacrificed on the 4th and 7th day, after the spore challenge. A portion of the lung tissue (10 mg) was homogenized with a mechanical homogenizer for 1 min in sterile PBS. The suspension was serially diluted 2-fold and incubated in triplicates on Sabouraud Agar (SDA) plates at 37° C. A. fumigatus colonies were counted after 24 hrs incubation and the values represent average±standard deviation of six data points (three from each dilution). The number of Colony forming units (CFUs) that appeared on the plates corresponds to the pulmonary fungal load of different groups. […] The other portion of the lung was kept in 10% formalin for histopathological studies of the lung sections.
The animal model of invasive pulmonary aspergillosis is prepared by known methods of the immunosuppression of the mice (Allen et al, 1994) followed by exposure to A. fumigatus spores. The mice were immunosuppressed by three intradermal injections of 2.5 mg of hydrocortisone acetate (Wycort) per 20 g of mouse per day one day before, the day of, and the day after spore challenge (day −1, 0, +1).
On the day of spore challenge (day 0), mice were lightly anesthesized with ether and 10^8 spores of A. fumigatus in 50 μl of sterile saline were administered intranasally in the groups of IPA mice, while 50 μl of saline alone was administered to the untreated control mice.
The administration of different concentrations of purified human rMBL (1-5 µg/mice) in saline intranasally to different groups of mice is described in Table I. The animal models of invasive pulmonary aspergillosis and their respective controls were given treatment with rMBL and amphotericin B. The amphotericin B treated mice acted as the positive control, since amphotericin B is a standard known antifungal agent.
(§2) The 1 µg rMBL-treated control and IPA mice received 1 μg of rMBL in 50 μl of saline per mouse on day 1. Similarly, 3 μg rMBL-treated control and IPA mice received 3 μg of rMBL in 50 μl of saline per mouse on day 1 and 5 µg rMBL-treated control and IPA mice received 5 μg of rMBL in 50 μl of saline per mouse on day 1. The AmB-treated control and IPA mice received AmB (134.6 μg) only on day 1. The groups of untreated control and untreated IPA mice received 50 μl of saline without rMBL intranasally on day 1.
(§3) Different groups of mice were monitored for 15 days for survival and thereby their survival rate was calculated.

The next data set deals with A. fumigatus conidia. The settings on record: in vitro, purified human MBL; cited from earlier work.
The subject of data set [2] is A. fumigatus. The experiment in a line: Fungal hyphae density in lung sections (histopathology) of IPA mice. The data set is classed as in vivo, BALB/c mice. The note with it: for fungal hyphae density compared to untreated IPA mice: FIG. 3, histopathology of lung sections.
From the text: as §1
For visualization of the fungal hyphae in the lungs of the mice, a portion of the lungs collected from the mice sacrificed on 4th and 7th day from treated and untreated groups after spore challenge and trimmed of extraneous tissue was kept in 10% formalin for histopathological studies and stored at 4° C. The tissue sections, made using a microtome and stained with hematoxylin and eosin, were examined at the magnification of 40×.

For data set [3], the system named is A. fumigatus. Briefly: Pulmonary fungal load (CFU counts in lung homogenate) in IPA mice. It counts as in vivo, BALB/c mice. The note with it: for fungal load: description.
From the text: as §1
For estimating the pulmonary fungal load and hyphae density of the mice, lungs were aseptically removed from each group of mice sacrificed on the 4th and 7th day, after the spore challenge. A portion of the lung tissue (10 mg) was homogenized with a mechanical homogenizer for 1 min in sterile PBS. The suspension was serially diluted 2-fold and incubated in triplicate on Sabauraud Agar (SDA) plates at 37° C. A. fumigatus colonies were counted after 24 hrs incubation and the values represent average±standard deviation of six data points (three from each dilution). The number of Colony forming units (CFUs) that appeared on the plates corresponds to the pulmonary fungal load of different groups.

Data set [4] is described as follows: Survival of immunosuppressed control mice that received no spores. It counts as in vivo, BALB/c mice. The procedure: as §2, §3
Where [5] appears, read: Example 6, PBS pH 7.2, rMBL 1-5 μg/mice.
The mark [6] stands for this setting: Example 8, TBS pH 7.6, rMBL 1-5 μg/mice.
Setting [7] is: Example 9, TBS pH 8.0, rMBL 1-5 ug/mice.
The mark [8] stands for this setting: Example 6, PBS pH 7.2, treated with AmB or rMBL.
Where [9] appears, read: Example 7, PBS pH 7.4, treated with AmB or rMBL.
The mark [10] stands for this setting: Example 8, TBS pH 7.6, treated with AmB or rMBL.
[11] abbreviates: Example 9, TBS pH 8.0, treated with AmB or rMBL.

“Also recorded” adds a separate entry of the source.

For the compound “rMBL: purified human recombinant mannan-binding lectin (MBL) protein, in solution form produced by recombinant technology”, the survival in the data set on A. fumigatus [1] (Example 6, PBS pH 7.2, 1 μg rMBL intranasally day 1) is recorded as 80%; with A. fumigatus [1] (Example 6, PBS pH 7.2, 3 μg rMBL intranasally day 1) it was 80%; in the data set with A. fumigatus [1] (Example 6, PBS pH 7.2, 5 μg rMBL intranasally day 1), 40%; in the data set on A. fumigatus [1] (Example 7, PBS pH 7.4, 1 μg rMBL intranasally day 1) it was 80%; in the data set with A. fumigatus [1] (Example 7, PBS pH 7.4, 5 μg rMBL intranasally day 1), 40%; with A. fumigatus [1] (Example 8, TBS pH 7.6, 1 μg rMBL intranasally day 1), 80%. Also, the survival was found to be 40% in the data set with A. fumigatus [1] (Example 8, TBS pH 7.6, 5 μg rMBL intranasally day 1); 80% in the data set on A. fumigatus [1] (Example 9, TBS pH 8.0, 1 μg rMBL intranasally day 1); 40% in the data set on A. fumigatus [1] (Example 9, TBS pH 8.0, 5 μg rMBL intranasally day 1). Also, the “percentage of survival, change in treated IPA mice” value was “increase” in the data set with A. fumigatus [1] (setting [5]); “increase” in the data set on A. fumigatus [1] (Example 7, PBS pH 7.4, rMBL 1-5 μg/mice, FIG. 1); “increase” in the data set with A. fumigatus [1] (setting [6]); “increase” with A. fumigatus [1] (setting [7]). In addition, the survival rate came to 80% in the data set with A. fumigatus [1] (FIG. 1, 1 µg MBL intranasally on day 1) and 80% in the data set on A. fumigatus [1] (FIG. 1, 3 µg MBL intranasally on day 1). Also, the “concentration range that most effectively mediates the killing of the fungus” value in the data set with A. fumigatus conidia is 1 to 5 µg/mL. For the same compound, the “fungal hyphae density in the lungs compared to untreated IPA mice” value is given as “decrease” in the data set on A. fumigatus [2] (Example 6, PBS pH 7.2); “decrease” in the data set on A. fumigatus [2] (Example 7, PBS pH 7.4, FIG. 3); “decrease” in the data set with A. fumigatus [2] (Example 8, TBS pH 7.6); “decrease” with A. fumigatus [2] (Example 9, TBS pH 8.0). In addition, the “fungal hyphae density compared to untreated IPA mice” value with A. fumigatus [2] (listed as MBL) is listed as “decreases; also recorded: drastic decrease”. Also, the “pulmonary fungal load compared to untreated IPA mice” value in the data set on A. fumigatus [3] (setting [5]) was “reduction”; with A. fumigatus [3] (Example 7, PBS pH 7.4, rMBL 1-5 μg/mice), “reduction”; with A. fumigatus [3] (setting [6]) it was “reduction”; in the data set with A. fumigatus [3] (setting [7]) it was “reduction”. The “CFUs in the lung homogenates” value was 4.6±0.5 CFUs×10^6/gm of lung tissue with A. fumigatus [3] (Example 7, PBS pH 7.4, 4th day after spore challenge, 1 μg rMBL); 4.2±0.4 CFUs×10^6/gm of lung tissue in the data set on A. fumigatus [3] (Example 7, PBS pH 7.4, 4th day after spore challenge, 3 μg rMBL); 6.4±0.5 CFUs×10^6/gm of lung tissue in the data set with A. fumigatus [3] (Example 7, PBS pH 7.4, 4th day after spore challenge, 5 μg rMBL). The “pulmonary fungal load, CFU counts” value in the data set with A. fumigatus [3] (FIG. 2, 4th day after spore challenge, 3 µg MBL treated IPA mice) was 4.2±0.4 CFU counts per gram of the lung tissue. The fungal load in the data set with A. fumigatus [3] (FIG. 2, 1 µg MBL treated IPA mice) was 4.6±0.5 CFUs×10^6/gm of lung tissue; in the data set with A. fumigatus [3] (FIG. 2, 3 µg MBL treated IPA mice) it was 4.2±0.4 CFUs×10^6/gm of lung tissue. Also, the “survival of control mice” value in data set [4] (setting [8]), in data set [4] (setting [9]), in data set [4] (setting [10]) and in data set [4] (setting [11]) was 100% each time.

Consider `C[C@@H]1[C@H](O)[C@@H](C)/C=C/C=C/C=C/C=C/C=C/C=C/C=C/[C@H](O[C@@H]2O[C@H](C)[C@@H](O)[C@H](N)[C@@H]2O)C[C@@H]2O[C@](O)(C[C@@H](O)C[C@@H](O)[C@H](O)CC[C@@H](O)C[C@@H](O)CC(=O)O[C@H]1C)C[C@H](O)[C@H]2C(=O)O` [AmB, Amphotericin B, reference compound], for which the survival came to 80% in the data set with A. fumigatus [1] (Example 6, PBS pH 7.2, AmB 134.6 μg on day 1); 80% in the data set on A. fumigatus [1] (Example 7, PBS pH 7.4, AmB 134.6 μg on day 1); 80% with A. fumigatus [1] (Example 8, TBS pH 7.6, AmB 134.6 μg on day 1); 80% in the data set with A. fumigatus [1] (Example 9, TBS pH 8.0, AmB 134.6 μg on day 1). In addition, the survival rate in the data set with A. fumigatus [1] (FIG. 1, amphotericin B (134.6 μg) on day 1) is given as 80%. Moreover, the “fungal hyphae density compared to untreated IPA mice” value in the data set with A. fumigatus [2] is reported as “decreases; also recorded: drastic decrease”. In the data set with A. fumigatus [3] (Example 7, PBS pH 7.4, 4th day after spore challenge, AmB 134.6 μg), the “CFUs in the lung homogenates” value is 5.65±0.07 CFUs×10^6/gm of lung tissue. The fungal load in the data set with A. fumigatus [3] (FIG. 2, amphotericin B treated IPA mice) is given as 5.65±0.07 CFUs×10^6/gm of lung tissue. The “survival of control mice” value in data set [4] (setting [8]), in data set [4] (setting [9]), in data set [4] (setting [10]) and in data set [4] (setting [11]) was 100% in each case.

Values taken from US20090088364A1, “Pharmaceutical composition useful for the treatment of invasive pulmonary aspergillosis” (priority 2004, published 2009).
